This test deals with T1, human CXCR6 (Homo sapiens, UniProt O00574).
T1 construct: expressed in transfected cells
Nature of the test: Radioligand Binding Assay (125I-CXCL16 displacement). The following applies: L1.2 cells stably transfected with human CXCR6 cDNA, 0.1 nM 125I-CXCL16, 4° C., three-hour incubation; read-out: Potency (IC50). The method, then: L1.2 cells stably transfected with human CXCR6 cDNA ([…]) were incubated at 4° C. in HBSS containing 0.1 % BSA and 0.1 nM of ^125I-CXCL16 plus various concentrations of Compound. Following a three-hour incubation period, cells were aspirated onto polyethyleneimine-treated GF/B glass fiber filters (PerkinElmer, Waltham, MA) with a cell harvester (Tomtec, Hamden, CT) and washed twice with washing buffer (25 mM Hepes, 500 mM NaCl, 1 mM CaCI2, 5 mM MgCI2, pH 7.1). Fifty µl of MicroScint-20 (PerkinElmer, Waltham, MA) was added to each well of the filters, and radioactive emissions (cpm) were measured on a Packard TopCount Scintillation counter (PerkinElmer, Waltham, MA). IC50 values were calculated with GraphPad Prism using 3 parameter nonlinear regression. […]

Structures are written as SMILES.

The term IC50 denotes the concentration needed to halve the response being measured.

T1 sequence (O00574 whole entry): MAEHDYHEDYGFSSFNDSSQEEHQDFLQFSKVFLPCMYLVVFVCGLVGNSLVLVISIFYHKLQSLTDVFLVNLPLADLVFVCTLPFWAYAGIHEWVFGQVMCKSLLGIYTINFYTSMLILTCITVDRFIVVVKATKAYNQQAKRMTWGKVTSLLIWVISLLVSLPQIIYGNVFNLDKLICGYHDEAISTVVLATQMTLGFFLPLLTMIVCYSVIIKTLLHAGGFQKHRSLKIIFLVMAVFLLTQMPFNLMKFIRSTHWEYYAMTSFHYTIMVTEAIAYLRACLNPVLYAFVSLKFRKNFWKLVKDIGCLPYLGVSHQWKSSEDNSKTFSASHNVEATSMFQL

On to `CC(C)c1cc(NC(=O)c2ccnn2C)ccc1S(=O)(=O)Nc1cccc(OC(F)(F)F)c1` [Example 1.456], for which the IC50 is 200 to 750 nM.
Consider `CCOc1cc(NC(=O)C(C)(O)c2ccccc2)ccc1S(=O)(=O)Nc1cccc(OC(F)(F)F)c1` (centres unmarked) [Example 1.095], for which the IC50 was no more than 200 nM.
The same measure for `CCOc1cc(NC(=O)[C@@H](CO)c2ccccc2)ccc1S(=O)(=O)Nc1cccc(C(C)C)c1` [Example 1.541]: no more than 200 nM.
The value for `CCOc1cc(NC(=O)[C@@H](NC(=O)C(F)(F)F)C(C)C)ccc1S(=O)(=O)Nc1cccc(OC(F)(F)F)c1` [Example 1.503] was no more than 200 nM; that for `CCOc1cc(NC(=O)[C@@H](CO)c2ccccc2)ccc1S(=O)(=O)Nc1ccc(F)c(C)c1` [Example 1.405] was 200 to 750 nM; that for `CCOc1cc(NC(=O)[C@@H](NS(C)(=O)=O)C(C)C)ccc1S(=O)(=O)Nc1cccc(OC(F)(F)F)c1` [Example 1.324] was no more than 200 nM.
With `Cc1cc(NC(=O)c2ccccc2)ccc1S(=O)(=O)Nc1cccc(C(F)(F)F)c1` [Example 1.447], the IC50 lay in the range of 200 to 750 nM.
On to `CCOc1cc(NC(=O)CC2(O)CCCCC2)ccc1S(=O)(=O)Nc1cccc(OC(F)(F)F)c1` [Example 1.474], for which the IC50 is 200 to 750 nM.
The value for `CCOc1cc(NC(=O)[C@@H](CO)C(C)C)ccc1S(=O)(=O)Nc1ccc(C)c(F)c1` [Example 1.213] was 200 to 750 nM; that for `CCOc1cc(NC(=O)C2CCC[C@H]2O)ccc1S(=O)(=O)Nc1cccc(OC(F)(F)F)c1` (some centres unmarked) [Example 1.468] was 200 to 750 nM.
The value for `CCOc1cc(NC(=O)C(CO)CC2CC=CCC2)ccc1S(=O)(=O)Nc1cccc(OC(F)(F)F)c1` (centres unmarked) [Example 1.428] was no more than 200 nM.
The same measure for `CCOc1cc(NC(=O)[C@@H](CO)c2ccccc2)ccc1S(=O)(=O)Nc1ccc(Cl)c(OC(F)(F)F)c1` [Example 1.389]: no more than 200 nM; for `CCOc1cc(NC(=O)[C@@H](N)C(C)C)ccc1S(=O)(=O)Nc1cccc(OC(F)(F)F)c1` [Example 1.454]: no more than 200 nM; for `CCOc1cc(NC(=O)[C@@H](CO)c2ccccc2)ccc1S(=O)(=O)Nc1ccc(C)c(C(C)C)c1` [Example 1.439]: no more than 200 nM.
Turning to `CCOc1cc(NC(=O)C(CO)CCC(C)C)ccc1S(=O)(=O)Nc1cccc(OC(F)(F)F)c1` (centres unmarked) [Example 1.128], the IC50 is no more than 200 nM.
As for `CCOc1cc(NC(=O)[C@@H]2COC[C@@H]2O)ccc1S(=O)(=O)Nc1cccc(OC(F)(F)F)c1` (racemic) [Example 1.010], the IC50 was in the range of 200 to 750 nM.
The value for `COc1cc(NC(=O)c2cc(C)nn2C)ccc1S(=O)(=O)Nc1cccc(C(F)(F)F)c1` [Example 1.254] was 200 to 750 nM.
Consider `CCCCOc1cc(NC(=O)c2ccnn2C)ccc1S(=O)(=O)Nc1cccc(C(F)(F)F)c1` [Example 1.156], for which the IC50 was 2000 to 20000 nM.
As for `CCOc1cc(NC(=O)[C@@H](CO)C(C)C)ccc1S(=O)(=O)Nc1ccc(Cl)cc1` [Example 1.044], the IC50 lay in the range of 200 to 750 nM.
The value for `CCOc1cc(NC(=O)[C@H]2CC=CC[C@@H]2C(=O)O)ccc1S(=O)(=O)Nc1cccc(OC(F)(F)F)c1` [Example 1.358] was no more than 200 nM; that for `Cc1cc(NC(=O)[C@@H]2CCCN2)ccc1S(=O)(=O)Nc1cccc(C(F)(F)F)c1` [Example 1.328] was 750 to 2000 nM; that for `CCOc1cc(NC(=O)[C@@H](O)C(C)C)ccc1S(=O)(=O)Nc1cccc(C(F)(F)F)c1` [Example 1.088] was no more than 200 nM.
For `COc1cc(NC(=O)[C@@H](CO)C(C)C)ccc1S(=O)(=O)Nc1ccc(C)c(C(F)(F)F)c1` [Example 1.495], the IC50 lay within 200 to 750 nM.
The value for `COc1cccc(NS(=O)(=O)c2ccc(NC(=O)c3ccnn3C)cc2OC)c1` [Example 1.348] was 750 to 2000 nM; that for `Cn1nccc1C(=O)Nc1ccc(S(=O)(=O)Nc2cccc(C(F)(F)F)c2)c(F)c1` [Example 1.256] was 2000 to 20000 nM; that for `CCOc1cc(NC(=O)[C@@H](O)C2CCCCC2)ccc1S(=O)(=O)Nc1cccc(OC(F)(F)F)c1` [Example 1.345] was no more than 200 nM.
On to `CCOc1cc(NC(=O)CC(C)(C)O)ccc1S(=O)(=O)Nc1cccc(OC(F)(F)F)c1` [Example 1.166], for which the IC50 lay in the range of 750 to 2000 nM.
The value for `CCOc1cc(NC(=O)C(O)C2CCCOC2)ccc1S(=O)(=O)Nc1cccc(OC(F)(F)F)c1` (centres unmarked) [Example 1.094] was no more than 200 nM; that for `CCOC(=O)C(C(=O)Nc1ccc(S(=O)(=O)Nc2cccc(OC(F)(F)F)c2)c(OCC)c1)C1CCCC1` (centres unmarked) [Example 1.144] was no more than 200 nM; that for `Cc1cc(NC(=O)c2cccc(F)c2)ccc1S(=O)(=O)Nc1cccc(C(F)(F)F)c1` [Example 1.380] was 200 to 750 nM.
Regarding `CCOc1cc(NC(=O)[C@@H](CO)C(C)C)ccc1S(=O)(=O)Nc1cccc(C2CC2)c1` [Example 1.082], the half-inhibitory concentration (IC50) was no more than 200 nM.
The same measure for `CCOc1cc(NC(=O)c2cn[nH]c(=O)c2)ccc1S(=O)(=O)Nc1cccc(OC(F)(F)F)c1` [Example 1.529]: no more than 200 nM.
The value for `CCOc1cc(NC(=O)[C@H]2CCCC[C@H]2O)ccc1S(=O)(=O)Nc1cccc(OC(F)(F)F)c1` [Example 1.432] was no more than 200 nM; that for `CCOc1cc(NC(=O)[C@@H](O)C(C)C)ccc1S(=O)(=O)Nc1ccc(F)c(C2CC2)c1` [Example 1.211] was no more than 200 nM.
The value for `CCOc1cc(NC(=O)C2CC3C=CC2O3)ccc1S(=O)(=O)Nc1cccc(OC(F)(F)F)c1` (centres unmarked) [Example 1.508] was no more than 200 nM; that for `CCOc1cc(NC(=O)[C@@H](CO)C2CC2)ccc1S(=O)(=O)Nc1cccc(OC(F)(F)F)c1` [Example 1.053] was no more than 200 nM.
For the compound `CCOc1cc(NC(=O)c2cccnc2C)ccc1S(=O)(=O)Nc1cccc(OC(F)(F)F)c1` [Example 1.200], the IC50 was no more than 200 nM.
For `CCOc1cc(NC(=O)[C@@H](O)C(C)C)ccc1S(=O)(=O)Nc1ccc(C)c(C(F)(F)F)c1` [Example 1.363], the IC50 is no more than 200 nM.
Take `COc1ccc(C(=O)Nc2ccc(S(=O)(=O)Nc3cccc(C(F)(F)F)c3)c(C)c2)cc1` [Example 1.136]: the IC50 lay within 750 to 2000 nM.
Take `CCOc1cc(NC(=O)[C@@H](CO)C(C)C)ccc1S(=O)(=O)Nc1ccc(CO)c(C(F)(F)F)c1` [Example 1.006]: the IC50 was 2000 to 20000 nM.
The same measure for `CCOc1cc(NC(=O)[C@@H](CO)C(C)C)ccc1S(=O)(=O)Nc1ccc(C)c(C(C)C)c1` [Example 1.057]: no more than 200 nM; for `CCOc1cc(NC(=O)C2CCC(=O)C2)ccc1S(=O)(=O)Nc1cccc(OC(F)(F)F)c1` (centres unmarked) [Example 1.152]: 200 to 750 nM.
The same measure for `CCOc1cc(NC(=O)[C@H](CO)c2ccccc2)ccc1S(=O)(=O)Nc1cccc(OC(F)(F)F)c1` [Example 1.287]: 200 to 750 nM; for `Cc1cc(NC(=O)c2cocn2)ccc1S(=O)(=O)Nc1cccc(C(F)(F)F)c1` [Example 1.301]: 2000 to 20000 nM; for `Cc1cc(NC(=O)c2cccc(Cl)c2)ccc1S(=O)(=O)Nc1cccc(C(F)(F)F)c1` [Example 1.299]: 200 to 750 nM.
As to `CCOc1cc(NC(=O)[C@@H](CO)c2ccccc2)ccc1S(=O)(=O)Nc1cccc(Cl)c1OC` [Example 1.190], the IC50 lay in the range of 2000 to 20000 nM.
Consider `Cc1cc(NC(=O)c2ccn(C)n2)ccc1S(=O)(=O)Nc1cccc(C(F)(F)F)c1` [Example 1.001], for which the IC50 was in the range of 2000 to 20000 nM.
`COCCC(=O)Nc1ccc(S(=O)(=O)Nc2cccc(C(F)(F)F)c2)c(OC)c1` [Example 1.423]: the IC50 fell in the range of 2000 to 20000 nM.
The value for `COc1cc(NC(=O)CC2CCOC2)ccc1S(=O)(=O)Nc1cccc(C(F)(F)F)c1` (centres unmarked) [Example 1.526] was 2000 to 20000 nM; that for `COc1cc(NC(=O)c2ccnn2C)ccc1S(=O)(=O)Nc1cccc(OC(F)F)c1` [Example 1.041] was 200 to 750 nM; that for `C=Cc1cc(NS(=O)(=O)c2ccc(NC(=O)[C@@H](CO)C(C)C)cc2OCC)ccc1C` [Example 1.548] was no more than 200 nM.
For the compound `COc1cc(NC(=O)[C@H]2CCOC[C@H]2C)ccc1S(=O)(=O)Nc1cccc(C(F)(F)F)c1` (racemic) [Example 1.219], the IC50 fell in the range of 200 to 750 nM.
`CCOc1cc(NC(=O)C2CCCNC2)ccc1S(=O)(=O)Nc1cccc(OC(F)(F)F)c1` (centres unmarked) [Example 1.030]: the IC50 lay in the range of 2000 to 20000 nM.
On to `CCOc1cc(NC(=O)C2CCC(O)CC2)ccc1S(=O)(=O)Nc1cccc(OC(F)(F)F)c1` (centres unmarked) [Example 1.183], for which the IC50 is 200 to 750 nM.
For `CCOc1cc(NC(=O)[C@@H](O)C(C)C)ccc1S(=O)(=O)Nc1ccc(F)c(CC)c1` [Example 1.431], the IC50 is no more than 200 nM.
Turning to `COc1cc(NC(=O)C2=CCCCC2)ccc1S(=O)(=O)Nc1cccc(OC(F)(F)F)c1` [Example 1.090], the IC50 lay within 750 to 2000 nM.
On to `CCOc1cc(NC(=O)C2CCOC2)ccc1S(=O)(=O)Nc1cccc(OC(F)(F)F)c1` (centres unmarked) [Example 1.058], for which the IC50 fell in the range of 200 to 750 nM.
In the case of `CCOc1cc(NC(=O)[C@@H](O)C(C)C)ccc1S(=O)(=O)Nc1cccc(OC(F)(F)F)c1F` [Example 1.320], the IC50 fell in the range of 200 to 750 nM.
In the case of `CCOc1cc(NC(=O)C2CC3C=CC2O3)ccc1S(=O)(=O)Nc1cccc(OC(F)(F)F)c1` (centres unmarked) [Example 1.046], the IC50 lay within 200 to 750 nM.
The same measure for `CCc1cc(NC(=O)C(NC(C)=O)C(C)C)ccc1S(=O)(=O)Nc1cccc(OC(F)(F)F)c1` (centres unmarked) [Example 1.487]: no more than 200 nM.
The same measure for `CCOc1cc(NC(=O)[C@@H](CO)c2ccccc2)ccc1S(=O)(=O)Nc1ccc(C)c(Cl)c1` [Example 1.441]: 200 to 750 nM.
Turning to `CCOc1cc(NC(=O)C(CO)C2CCOCC2)ccc1S(=O)(=O)Nc1cccc(OC(F)(F)F)c1` (centres unmarked) [Example 1.092], the IC50 is 200 to 750 nM.
